Laboratory results reported in ChEMBL document CHEMBL1955764, “Synthesis and biological activity of 23-ethylidene-26-hydroxy-22-oxocholestane derivatives from spirostanic sapogenins” (Eur J Med Chem, 2012).
Calls of active or inactive are those of the source. The calls are words filed in the database; no cut-off is given here.

Assays:
CCRF-CEM [1] = assay: Cytotoxicity against human CEM cells after 72 hrs by calcein AM assay; format: functional, cell-based
MCF7 = assay: Cytotoxicity against human MCF7 cells after 72 hrs by calcein AM assay; format: functional, cell-based; settings: MCF7, 72 h
HeLa = assay: Cytotoxicity against human HeLa cells after 72 hrs by calcein AM assay; format: functional, cell-based
BJ = assay: Cytotoxicity against human BJ cells after 72 hrs by calcein AM assay; format: cell-based
CCRF-CEM [2] = assay: Cell cycle arrest in human CEM cells assessed as decrease of procaspase 3 level after 24 hrs by Western blotting analysis; format: functional, cell-based
CCRF-CEM [3] = assay: Induction of apoptosis in human CEM cells assessed as increase of caspase 3/7 activity using Ac-DEVD-AMC as substrate at 50 uM after 24 hrs relative to control; format: functional
CCRF-CEM [4] = assay: Cell cycle arrest in human CEM cells assessed as increase of cleaved of PARP level after 24 hrs by Western blotting analysis; format: functional, cell-based
CCRF-CEM [5] = assay: Cell cycle arrest in human CEM cells assessed as accumulation at sub-G1 phase at 5 to 50 uM after 24 hrs using propidium iodide staining by flow cytometric analysis; format: functional, cell-based
CCRF-CEM [6] = assay: Cell cycle arrest in human CEM cells assessed as accumulation at G1 phase after 24 hrs using propidium iodide staining by flow cytometric analysis; format: functional, cell-based
CCRF-CEM [7] = assay: Cell cycle arrest in human CEM cells assessed as accumulation at G0/G1 phase at 5 to 50 uM after 24 hrs using propidium iodide staining by flow cytometric analysis; format: functional, cell-based
CCRF-CEM [8] = assay: Cell cycle arrest in human CEM cells assessed as increase of cleaved of PARP level at 50 uM after 24 hrs by Western blotting analysis; format: functional, cell-based
CCRF-CEM [9] = assay: Cell cycle arrest in human CEM cells assessed as accumulation at G2/M phase at 5 to 50 uM after 24 hrs using propidium iodide staining by flow cytometric analysis; format: functional, cell-based
CCRF-CEM [10] = assay: Cell cycle arrest in human CEM cells assessed as decrease of procaspase 3 level at 50 uM after 24 hrs by Western blotting analysis; format: functional, cell-based

Structure (SMILES) | IC50 (CCRF-CEM [1]) | IC50 (MCF7) | IC50 (HeLa) | IC50 (BJ) | Activity (CCRF-CEM [2]) | fold change (FC) (CCRF-CEM [3]) | Activity (CCRF-CEM [4]) | Activity (CCRF-CEM [5]) | Activity (CCRF-CEM [6]) | Activity (CCRF-CEM [7]) | Activity (CCRF-CEM [8]) | Activity (CCRF-CEM [9]) | Activity (CCRF-CEM [10])
CC(=O)O[C@H]1CC[C@@]2(C)C(=CC[C@H]3[C@@H]4C[C@H](OC(C)=O)[C@H]([C@H](C)C(=O)C5=C(C)OC[C@H](C)C5)[C@@]4(C)CC[C@@H]32)C1 | 40.9 µM | > 50 µM | > 50 µM | > 50 µM |  |  |  |  |  |  |  |  | 
C/C=C(\C[C@@H](C)CO)C(=O)[C@@H](C)[C@H]1[C@@H](OC(C)=O)C[C@H]2[C@@H]3CC[C@H]4C[C@@H](OC(C)=O)CC[C@]4(C)[C@H]3CC[C@]12C | 5.9 µM | 14.7 µM | > 50 µM | > 50 µM | Dose-dependent effect | 4.3 | Dose-dependent effect | Active | Dose-dependent effect | Active | Active | Active | Active
CC(=O)O[C@H]1CC[C@@]2(C)C(=CC[C@H]3[C@@H]4C[C@H](OC(C)=O)[C@H]([C@H](C)C(=O)C5=C(C)OC[C@H](C)C5)[C@@]4(C)C(=O)C[C@@H]32)C1 | 10.5 µM | 47.1 µM | > 50 µM | > 50 µM |  |  |  |  |  |  |  |  | 
CC(=O)O[C@H]1CC[C@@]2(C)C(=CC[C@H]3[C@@H]4C[C@H](OC(C)=O)[C@H]([C@H](C)C(=O)C5=C(C)OC[C@H](C)C5)[C@@]4(C)[C@H](O)C[C@@H]32)C1 | 13.9 µM | > 50 µM | > 50 µM | > 50 µM |  |  |  |  |  |  |  |  | 
CC(C)CCC[C@@H](C)[C@H]1CC[C@H]2[C@@H]3CC=C4C[C@@H](O)CC[C@]4(C)[C@H]3CC[C@]12C [CHOLESTEROL] | > 50 µM | > 50 µM | > 50 µM | > 50 µM |  |  |  |  |  |  |  |  | 
C/C=C(\C[C@@H](C)CO)C(=O)[C@@H](C)[C@H]1[C@@H](OC(C)=O)C[C@H]2[C@@H]3CC=C4C[C@@H](OC(C)=O)CC[C@]4(C)[C@H]3CC(=O)[C@]12C | 19 µM | > 50 µM | > 50 µM | > 50 µM |  |  |  |  |  |  |  |  | 
C/C=C(\C[C@@H](C)CO)C(=O)[C@@H](C)[C@H]1[C@@H](OC(C)=O)C[C@H]2[C@@H]3CC=C4C[C@@H](OC(C)=O)CC[C@]4(C)[C@H]3CC[C@]12C | 11.1 µM | > 50 µM | > 50 µM | > 50 µM | Dose-dependent effect | 2.4 | Dose-dependent effect | Active | Dose-dependent effect | Active | Active | Active | Active
CC(=O)O[C@H]1CC[C@@]2(C)[C@@H](CC[C@@H]3[C@@H]2CC[C@]2(C)[C@@H]([C@H](C)C(=O)C4=C(C)OC[C@H](C)C4)[C@@H](OC(C)=O)C[C@@H]32)C1 | 20.7 µM | 35.7 µM | > 50 µM | > 50 µM |  |  |  |  |  |  |  |  | 
